Data: patent publication US20060148850A1, “4-{'3-(Sulfonylamino) phenyl!'1-(cyclymethyl) piperidin-4-ylidene! methyl}benazmide derivativess as delta opioid receptor ligands for the treatment of pain, anxiety and functional gastrointestinal disorder” (AstraZeneca AB, priority 2003, published 2006)
Where two headings read alike, the source gives them in different places.

Legend:
cloned human δ receptors [1] = target: T1, cloned human δ receptors (Homo sapiens, UniProt P41143); experiment: Human δ receptor functional assay (GTP[γ]35S binding), high and low receptor expression; type: biochemical
T1 construct: expressed in transfected cells; host or cells: HEK-293S cells
T1 sequence (P41143 whole entry): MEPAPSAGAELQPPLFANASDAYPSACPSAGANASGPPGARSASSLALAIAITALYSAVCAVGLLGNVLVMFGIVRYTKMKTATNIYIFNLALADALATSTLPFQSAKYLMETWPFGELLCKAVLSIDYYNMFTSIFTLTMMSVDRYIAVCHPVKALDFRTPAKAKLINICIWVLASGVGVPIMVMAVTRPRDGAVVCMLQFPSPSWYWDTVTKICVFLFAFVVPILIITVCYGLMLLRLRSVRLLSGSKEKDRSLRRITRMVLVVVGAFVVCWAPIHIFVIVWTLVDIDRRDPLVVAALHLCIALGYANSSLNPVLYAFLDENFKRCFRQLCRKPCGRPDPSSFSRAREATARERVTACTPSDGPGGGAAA
Method: Human 293S cells expressing cloned human κ, δ and μ receptors and neomycin resistance are grown in suspension at 37° C. and 5% CO2 in shaker flasks containing calcium-free DMEM10% FBS, 5% BCS, 0.1% Pluronic F-68, and 600 μg/ml geneticin.
Cells are pelleted and resuspended in lysis buffer (50 mM Tris, pH 7.0, 2.5 mM EDTA, with PMSF added just prior to use to 0.1 mM from a 0.1 M stock in ethanol), incubated on ice for 15 min, then homogenized with a polytron for 30 sec. The suspension is spun at 1000 g (max) for 10 min at 4° C. The supernatant is saved on ice and the pellets resuspended and spun as before. The supernatants from both spins are combined and spun at 46,000 g(max) for 30 min. The pellets are resuspended in cold Tris buffer (50 mM Tris/Cl, pH 7.0) and spun again. The final pellets are resuspended in membrane buffer ( 50 mM Tris, 0.32 M sucrose, pH 7.0). Aliquots (1 ml) in polypropylene tubes are frozen in dry ice/ethanol and stored at −70° C. until use. The protein concentrations are determined by a modified Lowry assay with sodium dodecyl sulfate.
The agonist activity of the compounds is measured by determining the degree to which the compounds receptor complex activates the binding of GTP to G-proteins to which the receptors are coupled. In the GTP binding assay, GTP[γ]^35S is combined with test compounds and membranes from HEK-293S cells expressing the cloned human opioid receptors or from homogenised rat or mouse brain. Agonists stimulate GTP[γ]^35S binding in these membranes. The EC50 and Emax values of compounds are determined from dose-response curves. Right shifts of the dose response curve by the delta antagonist naltrindole are performed to verify that agonist activity is mediated through delta receptors. For human […] functional assays, EC50 (low) is measured when the human δ receptors used in the assay were expressed at lower levels in comparison with those used in determining EC50 (high). The Emax values were determined in relation to the standard δ agonist SNC80, i.e., higher than 100% is a compound that have better efficacy than SNC80.
Rat brain membranes are thawed at 37° C., passed 3 times through a 25-gauge blunt-end needle and diluted in the GTPYS binding (50 mM Hepes, 20 mM NaOH, 100 mM NaCl, 1 mM EDTA, 5 mM MgCl2, pH 7.4, Add fresh: 1 mM DTT, 0.1% BSA). 120 μM GDP final is added membranes dilutions. The EC50 and Emax of compounds are evaluated from 10-point dose-response curves done in 300 μl with the appropriate amount of membrane protein (20 μg/well) and 100000-130000 dpm of GTPγ^35S per well (0.11-0.14 nM). The basal and maximal stimulated binding are determined in absence and presence of 3 μM SNC-80. The assay performed on HEK 293s cells stably expressing cloned Delta receptors is done in a slightly different buffer (50 mM Hepes, 20 mM NaOH, 200 mM NaCl, 1 mM EDTA, 5 mM MgCl2, pH 7.4, Add fresh: 0.5% BSA, no DTT) and with a 3 μM final conc. of GDP.

cloned human δ receptors [2] = target: T1, cloned human δ receptors; experiment: Human δ receptor binding assay (125I-Deltorphin II displacement)
cloned human μ receptors = target: T2, cloned human μ receptors (Homo sapiens, UniProt P35372); experiment: Human μ receptor binding assay (125I-FK33824 displacement)
T2 construct: expressed in transfected cells; host or cells: Human 293S cells
T2 sequence (P35372 whole entry): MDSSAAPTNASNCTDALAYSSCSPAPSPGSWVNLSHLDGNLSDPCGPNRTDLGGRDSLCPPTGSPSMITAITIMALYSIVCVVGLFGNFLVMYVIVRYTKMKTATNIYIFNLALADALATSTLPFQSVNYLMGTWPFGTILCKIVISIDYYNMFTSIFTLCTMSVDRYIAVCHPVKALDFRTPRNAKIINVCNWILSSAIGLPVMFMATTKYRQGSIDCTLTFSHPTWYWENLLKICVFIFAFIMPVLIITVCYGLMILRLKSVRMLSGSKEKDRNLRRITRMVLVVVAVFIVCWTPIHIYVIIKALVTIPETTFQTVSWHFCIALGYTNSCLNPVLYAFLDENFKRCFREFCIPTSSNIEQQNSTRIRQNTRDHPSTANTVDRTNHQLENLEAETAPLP

[3] = target: T3, δ receptors in rat brain membranes (Rattus norvegicus, UniProt P33533); experiment: Rat brain functional assay (GTPγ35S binding); type: biochemical
T3 construct: membranes from HEK-293S cells expressing the cloned human opioid receptors or from homogenised rat or mouse brain; from tissue; host or cells: rat brain
T3 sequence (P33533 whole entry): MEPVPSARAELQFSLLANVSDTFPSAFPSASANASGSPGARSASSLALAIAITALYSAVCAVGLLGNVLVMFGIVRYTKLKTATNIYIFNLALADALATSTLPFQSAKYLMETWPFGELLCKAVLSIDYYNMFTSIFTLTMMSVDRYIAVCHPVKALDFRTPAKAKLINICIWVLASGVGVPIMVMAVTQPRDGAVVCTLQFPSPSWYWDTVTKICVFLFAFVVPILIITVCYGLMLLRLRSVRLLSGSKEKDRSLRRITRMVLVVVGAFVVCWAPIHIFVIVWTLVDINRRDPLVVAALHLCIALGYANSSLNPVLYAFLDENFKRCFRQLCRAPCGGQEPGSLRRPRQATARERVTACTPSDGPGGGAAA
Method: Rat brains are weighed and rinsed in ice-cold PBS (containing 2.5 mM EDTA, pH 7.4). The brains are homogenized with a polytron for 30 sec (rat) in ice-cold lysis buffer (50 mM Tris, pH 7.0,2.5 mM EDTA, with phenylmethylsulfonyl fluoride added just prior use to […] from a 0.5M stock in DMSO:ethanol).
The agonist activity of the compounds is measured by determining the degree to which the compounds receptor complex activates the binding of GTP to G-proteins to which the receptors are coupled. In the GTP binding assay, GTP[γ]^35S is combined with test compounds and membranes from HEK-293S cells expressing the cloned human opioid receptors or from homogenised rat or mouse brain. […] The EC50 and Emax values of compounds are determined from dose-response curves. […] For human a receptor functional assays, EC50 (low) is measured when the human δ receptors used in the assay were expressed at lower levels in comparison with those used in determining EC50 (high). […]
Rat brain membranes are thawed at 37° C., passed 3 times through a 25-gauge blunt-end needle and diluted in the GTPYS binding (50 mM Hepes, 20 mM NaOH, 100 mM NaCl, 1 mM EDTA, 5 mM MgCl2, pH 7.4, Add fresh: 1 mM DTT, 0.1% BSA). […] The EC50 and Emax of compounds are evaluated from 10-point dose-response curves done in 300 μl with the appropriate amount of membrane protein (20 μg/well) and 100000-130000 dpm of GTPγ^35S per well (0.11-0.14 nM). […]

cloned human κ receptors = cloned human κ receptors (Homo sapiens, UniProt P41145); experiment: Human κ receptor binding assay (125I-DPDYN displacement); conditions: Table 1
Chain of cloned human κ receptors (P41145 whole entry): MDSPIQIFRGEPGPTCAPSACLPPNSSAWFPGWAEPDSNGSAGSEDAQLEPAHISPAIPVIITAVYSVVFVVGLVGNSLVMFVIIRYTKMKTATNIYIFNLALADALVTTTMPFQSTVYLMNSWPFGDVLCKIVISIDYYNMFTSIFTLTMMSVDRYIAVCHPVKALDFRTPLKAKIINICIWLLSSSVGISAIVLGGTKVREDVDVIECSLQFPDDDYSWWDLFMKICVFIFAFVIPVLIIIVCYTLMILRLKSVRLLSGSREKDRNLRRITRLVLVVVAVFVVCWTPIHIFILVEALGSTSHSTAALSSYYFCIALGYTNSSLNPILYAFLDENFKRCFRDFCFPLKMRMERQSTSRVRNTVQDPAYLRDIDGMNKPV

[4] = Table 2, lower expression, relative to SNC80, range over compounds 1,2,4,5, read-out: Human δ %EMax (low)

Row | SMILES | EC50 (cloned human δ receptors [1]) [nM] | Emax (cloned human δ receptors [1]; [4]) [%] | IC50 (cloned human δ receptors [2]) [nM] | IC50 (cloned human μ receptors) [nM] | Emax (cloned human δ receptors [1]; Table 1, higher expression, relative to standard δ agonist SNC80, read-out: Human δ % EMax (high)) [%] | EC50 [3] [nM] | Emax ([3]; Table 1, rat brain membranes, relative to SNC80) [%] | IC50 (cloned human κ receptors) [nM]
1 | CCN(CC)C(=O)c1ccc(C(=C2CCN(Cc3cccs3)CC2)c2cccc(NS(C)(=O)=O)c2)cc1 [Compound 1, N,N-diethyl-4-{{3-[(methylsulfonyl)amino]phenyl}[1-(thien-2-ylmethyl)piperidin-4-ylidene]methyl}benzamide] | 5.25 to 19.3 | 106 to 126 | 0.18 to 0.35 | 77.9 to 301 |  |  |  | 
2 | CCN(CC)C(=O)c1ccc(C(=C2CCN(Cc3ccco3)CC2)c2cccc(NS(C)(=O)=O)c2)cc1 [Compound 2, N,N-diethyl-4-[[l-(2-furanylmethyl)-4-piperidinylidene][3-[(methylsulfonyl)amino]phenyl]methyl]-benzamide] | 5.25 to 19.3 | 106 to 126 | 0.18 to 0.35 | 77.9 to 301 |  |  |  | 
3 | CCN(CC)C(=O)c1ccc(C(=C2CCN(Cc3ccccc3)CC2)c2cccc(NS(C)(=O)=O)c2)cc1 [Compound 3, N,N-diethyl-4-[[1-(phenylmethyl)-4-piperidinylidene][3-[(methylsulfonyl)amino]phenyl]methyl]-benzamide] | 0.53 |  | 0.56 | 35 | 99 | 1.32 | 145 | 1050
4 | CCN(CC)C(=O)c1ccc(C(=C2CCN(Cc3cccnc3)CC2)c2cccc(NS(C)(=O)=O)c2)cc1 [Compound 4, N,N-diethyl-4-[[3-[(methylsulfonyl)amino]phenyl][1-(3-pyridinylmethyl)4-piperidinylidene]methyl]-benzamide] | 5.25 to 19.3 | 106 to 126 | 0.18 to 0.35 | 77.9 to 301 |  |  |  | 
5 | CCN(CC)C(=O)c1ccc(C(=C2CCN(Cc3nccs3)CC2)c2cccc(NS(C)(=O)=O)c2)cc1 [Compound 5] | 5.25 to 19.3 | 106 to 126 | 0.18 to 0.35 | 77.9 to 301 |  |  |  | 
